Data from patent US20050054103A1, “Expansion of renewable stem cell populations using modulators of PI 3-kinase” (priority 2003, published 2005).

Test system: CD34+ cells
Assay: Ex-vivo expansion of CD34+ cell enriched cultures with RAR antagonist, cell counts and FACS surface antigen analysis
Assay type: cell-based, human
Details: for No. of cells (× 10^4): 2 weeks after seeding; for No. of CD34+ cells: RAR antagonist 10^−5 M for one week only
Experimental: Human blood cells were obtained from umbilical cord blood from female patients following full-term, normal delivery (informed consent was obtained). Samples were collected and processed within 12 hours postpartum. Blood was mixed with 3% Gelatin (Sigma, St. Louis, Mo.), sedimented for 30 minutes to remove most red blood cells. […] The mononuclear cell fraction in the interface layer was collected, washed three times and resuspended in phosphate-buffered saline (PBS) solution (Biological Industries) containing 0.5% bovine serum albumin (BSA, Fraction V; Sigma).
To purify CD34^+ mononuclear cells, the fraction was subjected to two cycles of immuno-magnetic separation using the MiniMACS® or Clinimax® CD34 Progenitor Cell Isolation Kit (Miltenyi Biotec, Auburn, Calif.) as per manufacturer's recommendations.
CD34^+ expressing purified cells above were cultured in 24-well Costar Cell Culture Clusters (Coming Inc., Corning, N.Y.) or culture bags (American Fluoroseal Corp), at a concentration of 10^4 cells/ml in alpha medium (Biological Industries, Beit Haemek, Israel) supplemented with 10% fetal bovine serum (FBS, Biological Industries). The following human recombinant cytokines were added: Thrombopoietin (TPO), interleukin-6 (IL-6), FLT-3 ligand and stem cell factor (SCF), all at final concentrations of 50 ng/ml each, though occasionally IL-3, at a concentration of 20 ng/ml, was added either together or instead of SCF. For non-hematopoietic cell differentiation, FGF, EGF, NGF, VEGF, LIF or Hepatocyte growth factor (HGF) were used to supplement the growth medium, either alone or in various combinations. All cytokines used were purchased from Perpo Tech, Inc. (Rocky Hill, N.J.). The cultures were incubated at 37° C., 5% CO2, in a humidified atmosphere.
At weekly intervals, cell cultures were toped and semi-depopulated and were supplemented with fresh medium, serum and cytokines or supplemented with fresh growth medium, alone. At predetermined time points, cells were harvested, stained with trypan blue, counted, and cell morphology was determined via the use of cytospin (Shandon, UK)-prepared smears stained with May-Grunwald/Giemsa solutions.
CD34^+ purified and whole MNC cultures were prepared and maintained as described above. […] The antagonist was added for a predetermined, limited period, for up to three weeks or continuously during the entire culture period.
Cells were harvested, washed with a PBS solution containing 1% bovine sera albumin (BSA) and 0.1% sodium azide (Sigma), and stained at 4° C. for 60 minutes with fluorescein isothiocyanate or phycoerythrin-conjugated antibodies (all from Immunoquality Products, the Netherlands). The cells were then washed with the same buffer and analyzed by FACS caliber or Facstarplus flow cytometers. Cells were passed at a rate of 1000 cells/second, using saline as the sheath fluid. A 488 nm argon laser beam served as the light source for excitation. Emission of ten thousand cells was measured using logarithmic amplification, and analyzed using CellQuest software. Negative control staining of cells was accomplished with mouse IgG-PE (Dako A/S Glostrup, Denmark) and mouse IgG-FITC (BD Biosciences, Erembodegem, Belgium).
CD34 surface expression on short and long-term cultures initiated either with purified CD34^+ cells or the entire MNC fraction was determined as follows: CD34^+ cells were positively reselected (Miltenyi kit) and counted. Purity was confirmed by subsequent FACS and cell morphology analysis.
Reselected CD34^+ cell subsets were stained for the following combination of antigens: CD34PE/CD38FITC and CD34PE/38, 33, 14, 15, 3, 4, 61, 19 (Lin) FITC. The fraction positive for CD34 and negative for CD38 was defined as CD34^+CD38^−. The fraction positive for CD34 and negative for LIN was defined as CD34^+Lin^− cell fraction.
FACS analysis results are given as percentage values of cells. Absolute numbers of subsets are calculated from the absolute number of CD34^+ cells.

[1] = RAR antagonist 10^−5 M, 2 weeks
[2] = RAR antagonist 10^−6 M, 2 weeks
[3] = reselected CD34+ cells after two weeks in culture

Compound: CCc1ccc(C2=CC(C)(C)Sc3ccc(C#Cc4ccc(C(=O)O)cc4)cc32)cc1 [AGN 194310]
- cell proliferation enabled until (post initial seeding) (AGN194310 10^−7 M): ≤ 11 weeks
- expression of the CD38 antigen (FACS, 2 weeks): completely abolished
- No. of cells (× 10^4) (RAR antagonist 10^−5 M + 4 cytokines): 42 × 10^4
- No. of CD34+ cells (week 13): 10322
- No. of CD34+ cells (week 20): 0
- % 34^+/38^−cells [1]: 17.14%
- % 34^+/Lin^−cells [1]: 15.18%
- % 34^+cells [1]: 18.94%
- No. of cells (× 10^4) (RAR antagonist 10^−6 M + 4 cytokines): 52 × 10^4
- % 34^+/38^−cells [2]: 17.16%
- % 34^+/Lin^−cells [2]: 11.91%
- % 34^+cells [2]: 19.59%
- increase in CD34+ expression between week three to eleven (RAR antagonist first three weeks only, then eight weeks without): 92 fold
- CD34^+Lin^− expansion (after two weeks in culture, CD34+ re-selected fraction): 530 fold
- increase in CD34^+CD38^− surface expression [3]: 1000 fold
- increase in CD34^+Lin^− surface expression [3]: 500 fold
- expansion of CD34+ compartment since the initiation of the cultures (week 11, RAR antagonist first three weeks only): 1621 fold
- increase in CD34^+Lin^− expression (week eleven, 9 weeks after termination of antagonist treatment): 16,700 fold
